# Patent US20100022483A1, “Substituted Tetracycline Compounds” (Paratek Pharmaceuticals, Inc., priority 2008, published 2010)
# Where two headings read alike, the source gives them in different places.
# How the values were obtained:
# [1] = tested on: gram negative bacteria; experiment: In vitro anti-bacterial activity assay (broth dilution MIC), gram negative bacteria; assay type: cell-based, E. coli
# Method in brief: (§1)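 Broth dilution MIC following CLSI M7-A2: compounds serially diluted, log-phase test strains added to final ~5×10^5 CFU/ml, incubated ~18 hours at 35° C in ambient air. Plates read on microplate reader or visually; MIC is lowest concentration inhibiting growth.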
# [2] = tested on: gram positive bacteria; experiment: In vitro anti-bacterial activity assay (broth dilution MIC), gram positive bacteria; assay type: cell-based, S. aureus; conditions: 18 h
# Method in brief: as §1
# [3] = Mammalian cytotoxicity assay (resazurin), COS-1 cells; assay type: cell-based; conditions: African green monkey, read-out: Cytotox. COS-1
# Method in brief: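 Resazurin read-out (0.042 mg/ml, 2 h at 37° C. then 30 min dark, room temperature; fluorescence 535/590 nm) follows 24-hour compound exposure of overnight-seeded cells, serially diluted. IC50 is the concentration giving 50% growth inhibition.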
# [4] = in vitro; assay type: cell-based; conditions: Chinese hamster, Cytotox. CHO-K1
# [5] = tested on: 3T3 fibroblast cells; experiment: In vitro phototoxicity assay (neutral red; UV light-treated vs dark control plates); assay type: cell-based; conditions: for Photo Toxicity UV Tox50: UV light 50 minutes; for Photo Toxicity Dark Tox50: dark control plate
# Method in brief: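 Neutral red viability readout (A535 after EtOH/acetic acid extraction) compares paired plates: one exposed 50 min to UV at 1.6–1.8 mW/cm^2, one held in darkness, both dosed with compound in HBSS and recovered overnight. 3T3 fibroblast cells used; phototoxicity taken as the difference.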
# [6] = Escherichia coli, 18 h, E. coli D1 209, read-out: Median MIC's G− E. coli D1 209
# [7] = Escherichia coli, 18 h, E. coli MG 1655, read-out: Median MIC's G− E. coli MG 1655
# [8] = Escherichia coli, ATCC25922, 18 h, E. coli ATCC 25922, read-out: Median MIC's G− E. coli ATCC 25922
# [9] = Pseudomonas aeruginosa, 18 h, P. aeruginosa K201 PAO6609, read-out: Median MIC's G− P. aeruginosa K201 PAO6609
# [10] = Staphylococcus aureus, S. aureus MRSA5, read-out: Median MIC's G+ S. aureus MRSA5
# [11] = Staphylococcus aureus, S. aureus RN450, read-out: Median MIC's G+ S. aureus RN450
# [12] = Streptococcus pneumoniae, S. pneumoniae 157E-Strep, read-out: Median MIC's G+ S. pneumoniae 157E-Strep
SMILES,"MIC [1, 6] [µg/mL]","MIC [1, 7] [µg/mL]","MIC [1, 8] [µg/mL]","MIC [1, 9] [µg/mL]","MIC [2, 10] [µg/mL]","MIC [2, 11] [µg/mL]","MIC [2, 12] [µg/mL]",IC50 at 24 h [3] [µM],IC50 at 24 h [4] [µM],Photo Toxicity UV Tox50 [5] [µM],Photo Toxicity Dark Tox50 [5] [µM],"MIC ([1]; Escherichia coli, 18 h, read-out: Median MIC's G− E. coli D1 209, E. coli D1 209) [µg/mL]","MIC ([1]; Escherichia coli, 18 h, read-out: Median MIC's G− E. coli MG 1655, E. coli MG 1655) [µg/mL]","MIC ([1]; Escherichia coli, ATCC25922, 18 h, read-out: Median MIC's G− E. coli ATCC 25922, E. coli ATCC 25922) [µg/mL]","MIC ([1]; Pseudomonas aeruginosa, 18 h, read-out: Median MIC's G− P. aeruginosa K201 PAO6609, P. aeruginosa K201 PAO6609) [µg/mL]"
CN(C)[C@@H]1C(O)=C(C(N)=O)C(=O)[C@@]2(O)C(O)=C3C(=O)c4c(O)ccc(-c5cccc(/C=C/C#N)c5)c4C[C@H]3C[C@@H]12 [CO],64,64,64,64,0.5,0.0625,0.06,7.77,9.41,>164.35,>164.35,–,–,–,–
CC(=O)NCCC(=O)c1ccc(O)c2c1C[C@H]1C[C@H]3[C@H](N(C)C)C(O)=C(C(N)=O)C(=O)[C@@]3(O)C(O)=C1C2=O [CI],64,64,64,64,64,2,2,> 160,> 160,>159.57,>159.57,–,–,–,–
CN(C)CCCCN(C)Cc1cccc(-c2ccc(O)c3c2C[C@H]2C[C@H]4[C@H](N(C)C)C(O)=C(C(N)=O)C(=O)[C@@]4(O)C(O)=C2C3=O)c1 [CW],4,2,2,64,8,0.06,0.06,> 132,> 132,>132.05,>132.05,–,–,–,–
CN(C)[C@@H]1C(O)=C(C(N)=O)C(=O)[C@@]2(O)C(O)=C3C(=O)c4c(O)ccc(-c5cccc(CCCN)c5)c4C[C@H]3C[C@@H]12 [DG],32,32,32,64,64,0.5,0.125,> 20,> 20,64.8,>200,–,–,–,–
COCCNCC(=O)c1ccc(O)c2c1C[C@H]1C[C@H]3[C@H](N(C)C)C(O)=C(C(N)=O)C(=O)[C@@]3(O)C(O)=C1C2=O [AG],64,32,32,64,64,4,4,> 158,> 158,>157.68,>157.68,–,–,–,–
"CCOC(=O)CCNC(=O)c1cccc(-c2ccc(O)c3c2C[C@H]2C[C@H]4[C@H](N(C)C)C(O)=C(C(N)=O)C(=O)[C@@]4(O)C(O)=C2C3=O)c1 [I, 3-[3-((6aS,10S,10aS,11aR)-8-Carbamoyl-10-dimethylamino-4,6,6a,9-tetrahydroxy-5,7-dioxo-5,6a,7,10,10a,11,11a,12-octahydro-naphthacen-1-yl)-benzoylamino]-propionic acid ethyl ester]",–,–,–,–,2,0.06,3,> 14.2,> 14.2,>141.76,>141.76,64,64,64,64
CN(C)[C@@H]1C(O)=C(C(N)=O)C(=O)[C@@]2(O)C(O)=C3C(=O)c4c(O)ccc(-c5ccc(NC(=O)CNC(C)(C)C)cc5)c4C[C@H]3C[C@@H]12 [AF],2,–,–,–,4,0.06,0.06,> 13.7,> 13.7,>137.36,>137.36,–,–,–,–
CN(C)[C@@H]1C(O)=C(C(N)=O)C(=O)[C@@]2(O)C(O)=C3C(=O)c4c(O)ccc(-c5cccc(C(=O)NCCN6CCCCC6)c5)c4C[C@H]3C[C@@H]12 [U],8,4,4,64,8,0.25,0.06,> 41,> 41,>132.37,>132.37,–,–,–,–
CN(C)[C@@H]1C(O)=C(C(N)=O)C(=O)[C@@]2(O)C(O)=C3C(=O)c4c(O)ccc(-c5cccc(C(=O)NCCN6CCCC6)c5)c4C[C@H]3C[C@@H]12 [CR],64,16,64,64,16,1,0.25,> 39.6,> 39.6,>127.91,>127.91,–,–,–,–
